Experimental findings from US10597383B2, “Bicyclic proline compounds” (Genentech, Inc., priority 2016, dated 2020) are described below.

Molecules are shown by their SMILES.

The target in the first assay is human TRPA1 (Homo sapiens (Human), UniProt O75762). Nature of the assay: hTRPA1 CHO Ca2+ AUC EVO (IC50); FLIPR Tetra block of cinnamaldehyde induced calcium influx. The assay is classed as cell-based. Particulars: Table 1; CHO cells expressing TRPA1; 75 uM cinnamaldehyde (~EC80) as agonist. Here is the method: IC50 ([…]) of compounds on the human and rat TRPA1 channels were determined using a FLIPR Tetra instrument. CHO cells expressing TRPA1 were plated into 384-well plates, incubated overnight at 37° C., and loaded with BD calcium indicator dye for 1 hr at 37° C. followed by 15 minutes. at room temperature. The assay buffer was Hank's Balanced Salt Solution (HBSS) containing 20 mM HEPES (pH readjusted to 7.4) along with 0.02% BSA.
Sequence of human TRPA1 (O75762 whole entry): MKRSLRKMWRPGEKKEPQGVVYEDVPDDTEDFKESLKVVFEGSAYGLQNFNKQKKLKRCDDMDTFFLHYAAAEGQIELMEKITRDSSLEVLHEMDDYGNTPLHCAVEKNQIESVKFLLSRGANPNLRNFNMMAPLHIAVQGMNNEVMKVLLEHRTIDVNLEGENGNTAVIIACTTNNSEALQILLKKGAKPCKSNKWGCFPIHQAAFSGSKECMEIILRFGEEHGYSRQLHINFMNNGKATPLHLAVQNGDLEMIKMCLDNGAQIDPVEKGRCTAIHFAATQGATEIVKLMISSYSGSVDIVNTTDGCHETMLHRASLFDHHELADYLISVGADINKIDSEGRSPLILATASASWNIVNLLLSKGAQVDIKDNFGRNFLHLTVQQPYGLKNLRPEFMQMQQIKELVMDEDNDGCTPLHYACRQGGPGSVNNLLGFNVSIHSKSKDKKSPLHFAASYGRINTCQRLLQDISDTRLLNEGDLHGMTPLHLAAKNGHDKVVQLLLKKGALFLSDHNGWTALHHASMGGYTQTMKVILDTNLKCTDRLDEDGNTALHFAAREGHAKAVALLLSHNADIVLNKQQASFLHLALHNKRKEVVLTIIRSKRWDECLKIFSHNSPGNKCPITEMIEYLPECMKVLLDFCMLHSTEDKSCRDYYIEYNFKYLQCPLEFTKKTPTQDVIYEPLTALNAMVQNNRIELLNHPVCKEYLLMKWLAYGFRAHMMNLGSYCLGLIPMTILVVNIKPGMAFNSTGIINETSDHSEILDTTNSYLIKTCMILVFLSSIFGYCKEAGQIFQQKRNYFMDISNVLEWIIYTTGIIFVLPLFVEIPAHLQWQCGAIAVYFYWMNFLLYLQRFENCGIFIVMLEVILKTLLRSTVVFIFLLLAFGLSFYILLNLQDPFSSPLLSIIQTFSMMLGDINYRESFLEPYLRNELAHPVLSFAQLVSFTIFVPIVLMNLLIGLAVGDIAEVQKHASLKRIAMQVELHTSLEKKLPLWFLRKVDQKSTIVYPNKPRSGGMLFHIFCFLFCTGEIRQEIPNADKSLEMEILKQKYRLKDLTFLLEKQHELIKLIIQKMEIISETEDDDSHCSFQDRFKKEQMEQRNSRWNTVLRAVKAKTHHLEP
Following dye load and plate cool down, compounds were added to the cells using FLIPR Tetra. Plates were then incubated with compounds for 20 minutes at room temperature prior to adding agonist. Following this incubation, ˜EC80 concentration of cinnamaldehyde (75 uM for human TRPA1 and 45 uM for rat TRPA1) was added to active the channels and block of cinnamaldehyde induced calcium influx was measured.
IC50 values were fit with a standard Hill function, keeping the Hill coefficient (n) fixed to 1.5. Fixing the Hill coefficient will generally reduce variability of the IC50 determination. The IC50 values were individually examined to make sure the MIN and MAX points were set correctly prior to validation of the results.
The IC50 is the concentration that gives 50% inhibition. Consider `O=C(NCc1cc(-c2cnc(C(F)(F)F)nc2)c(F)cn1)[C@@H]1C2CC(C2)N1S(=O)(=O)c1cc2cc(F)ccc2o1`, for which the IC50 was 1.08 nM.

As to `O=C(NCc1cc(-c2cnc(C(F)(F)F)nc2)ccc1F)[C@@H]1C2CC(C2)N1S(=O)(=O)c1ccc(F)cc1` [(2S)-3-(4-fluorophenyl)sulfonyl-N-[[2-fluoro-5-[2-(trifluoromethyl)pyrimidin-5-yl]phenyl]methyl]-3-azabicyclo[2.1.1]hexane-2-carboxamide], the IC50 amounted to 9.89 nM.

With `O=C(NCc1cc(F)cc(-c2cnc(C(F)(F)F)nc2)c1)[C@@H]1C2CC(C2)N1S(=O)(=O)c1ccc(F)cc1` [(2S)-3-(4-fluorophenyl)sulfonyl-N-[[3-fluoro-5-[2-(trifluoromethyl)pyrimidin-5-yl]phenyl]methyl]-3-azabicyclo[2.1.1]hexane-2-carboxamide], the IC50 amounted to 8.97 nM.

As for `O=C(NCc1cc(-c2cnc(C(F)(F)F)nc2)ncc1OC(F)(F)F)[C@@H]1C2CC(C2)N1S(=O)(=O)c1ccc(F)cc1` [(2S)-3-(4-fluorophenyl)sulfonyl-N-[[5-(trifluoromethoxy)-2-[2-(trifluoromethyl)pyrimidin-5-yl]-4-pyridyl]methyl]-3-azabicyclo[2.1.1]hexane-2-carboxamide], the IC50 was 2.77 nM.

With `O=C(NCc1cc(-c2cnc(C(F)(F)F)nc2)ncc1C(F)(F)F)[C@@H]1C2CC(C2)N1S(=O)(=O)c1ccc(F)cc1` [(2S)-3-(4-fluorophenyl)sulfonyl-N-[[5-(trifluoromethyl)-2-[2-(trifluoromethyl)pyrimidin-5-yl]-4-pyridyl]methyl]-3-azabicyclo[2.1.1]hexane-2-carboxamide], the IC50 came out at 2.61 nM.

With `O=C(NCc1cc(-c2cnc(C(F)(F)F)nc2)ncc1C(F)(F)F)[C@@H]1C2CC(C2)N1S(=O)(=O)c1cc2cc(F)ccc2o1` [(2S)-3-(5-fluorobenzofuran-2-yl)sulfonyl-N-[[5-(trifluoromethyl)-2-[2-(trifluoromethyl)pyrimidin-5-yl]-4-pyridyl]methyl]-3-azabicyclo[2.1.1]hexane-2-carboxamide], the IC50 was 1.85 nM.

Take `O=C(NCc1cc(Cl)nc(-c2cnc(C(F)(F)F)nc2)c1)[C@@H]1C2CC(C2)N1S(=O)(=O)c1ccc(F)cc1` [(2S)-N-[[2-chloro-6-[2-(trifluoromethyl)pyrimidin-5-yl]-4-pyridyl]methyl]-3-(4-fluorophenyl)sulfonyl-3-azabicyclo[2.1.1]hexane-2-carboxamide]: the IC50 worked out at 4.64 nM.

As for `O=C(NCc1cc(-c2cnc(C(F)(F)F)nc2)nc(C2CC2)n1)[C@@H]1C2CC(C2)N1S(=O)(=O)c1ccc(F)cc1` [(2S)-N-[[2-cyclopropyl-6-[2-(trifluoromethyl)pyrimidin-5-yl]pyrimidin-4-yl]methyl]-3-(4-fluorophenyl)sulfonyl-3-azabicyclo[2.1.1]hexane-2-carboxamide], the IC50 turned out to be 2.15 nM.

Turning to `O=C(NCc1cc(-c2cnc(C(F)(F)F)nc2)ncc1C(F)F)[C@@H]1C2CC(C2)N1S(=O)(=O)c1ccc(F)c(F)c1` [(2S)-N-[[5-(difluoromethyl)-2-[2-(trifluoromethyl)pyrimidin-5-yl]-4-pyridyl]methyl]-3-(3,4-difluorophenyl)sulfonyl-3-azabicyclo[2.1.1]hexane-2-carboxamide], the IC50 is 9.01 nM.

Regarding `O=C(NCc1cc(-c2cnc(C(F)(F)F)nc2)ncc1C(F)F)[C@@H]1C2CC(C2)N1S(=O)(=O)c1ccc(F)cc1` [(2S)-N-[[5-(difluoromethyl)-2-[2-(trifluoromethyl)pyrimidin-5-yl]-4-pyridyl]methyl]-3-(4-fluorophenyl)sulfonyl-3-azabicyclo[2.1.1]hexane-2-carboxamide], the IC50 was 9.92 nM.

Take `O=C(NCc1cc(-c2cnc(C(F)(F)F)nc2)ncc1Br)[C@@H]1C2CC(C2)N1S(=O)(=O)c1ccc(F)cc1` [(2S)-N-[[5-bromo-2-[2-(trifluoromethyl)pyrimidin-5-yl]-4-pyridyl]methyl]-3-(4-fluorophenyl)sulfonyl-3-azabicyclo[2.1.1]hexane-2-carboxamide]: the IC50 is 3.82 nM.

On to `O=C(NCc1cc(-c2cnc(C(F)(F)F)nc2)ncc1Cl)[C@@H]1C2CC(C2)N1S(=O)(=O)c1ccc(F)c(F)c1` [(2S)-N-[[5-chloro-2-[2-(trifluoromethyl)pyrimidin-5-yl]-4-pyridyl]methyl]-3-(3,4-difluorophenyl)sulfonyl-3-azabicyclo[2.1.1]hexane-2-carboxamide], for which the half-inhibitory concentration (IC50) is 1.55 nM.

With `O=C(NCc1cc(-c2cnc(C(F)(F)F)nc2)cc(C2CC2)n1)[C@@H]1C2CC(C2)N1S(=O)(=O)c1ccc(F)cc1` [(2S)-N-[[6-cyclopropyl-4-[2-(trifluoromethyl)pyrimidin-5-yl]-2-pyridyl]methyl]-3-(4-fluorophenyl)sulfonyl-3-azabicyclo[2.1.1]hexane-2-carboxamide], the IC50 is 7.24 nM.

The same assay, now with this note: Table 3; CHO cells expressing TRPA1; 75 uM cinnamaldehyde (~EC80) as agonist.
Take `O=C(NCc1cc(-c2cnc(C(F)(F)F)nc2)ncn1)[C@@H]1C2CC(C2)N1S(=O)(=O)c1ccc(F)cc1` [compound 1, (2S)-3-(4-fluorophenyl)sulfonyl-N-[[6-[2-(trifluoromethyl)pyrimidin-5-yl]pyrimidin-4-yl]methyl]-3-azabicyclo[2.1.1]hexane-2-carboxamide]: the IC50 is 42.9 nM.

With `O=C(NCc1cc(-c2cnc(C(F)(F)F)nc2)ncc1F)[C@@H]1C2CC(C2)N1S(=O)(=O)c1ccc(F)cc1` [compound 2, (2S)-3-(4-fluorophenyl)sulfonyl-N-[[5-fluoro-2-[2-(trifluoromethyl)pyrimidin-5-yl]-4-pyridyl]methyl]-3-azabicyclo[2.1.1]hexane-2-carboxamide], the IC50 amounted to 11.3 nM.

Regarding `O=C(NCc1cc(-c2ccc(C(F)(F)F)nc2)ncn1)[C@@H]1C2CC(C2)N1S(=O)(=O)c1ccc(F)cc1` [compound 3, (2S)-3-(4-fluorophenyl)sulfonyl-N-[[6-[6-(trifluoromethyl)-3-pyridyl]pyrimidin-4-yl]methyl]-3-azabicyclo[2.1.1]hexane-2-carboxamide], the half-inhibitory concentration (IC50) turned out to be 24.8 nM.

For `O=C(NCc1ccnc(-c2cnc(C(F)(F)F)nc2)c1)[C@@H]1C2CC(C2)N1S(=O)(=O)c1ccc(F)cc1` [compound 4, (2S)-3-(4-fluorophenyl)sulfonyl-N-[[2-[2-(trifluoromethyl)pyrimidin-5-yl]-4-pyridyl]methyl]-3-azabicyclo[2.1.1]hexane-2-carboxamide], the IC50 was 36.4 nM.

For the compound `O=C(NCc1cc(Cl)nc(-c2cnc(C(F)(F)F)nc2)c1)[C@@H]1C2CC(C2)N1S(=O)(=O)c1ccc(F)cc1` [compound 5, (2S)-N-[[2-chloro-6-[2-(trifluoromethyl)pyrimidin-5-yl]-4-pyridyl]methyl]-3-(4-fluorophenyl)sulfonyl-3-azabicyclo[2.1.1]hexane-2-carboxamide], the concentration for half-maximal inhibition (IC50) turned out to be 4.64 nM.

Consider `O=C(NCc1cc(-c2cnc(C(F)(F)F)nc2)c(F)cn1)[C@@H]1C2CC(C2)N1S(=O)(=O)c1ccc(F)cc1` [compound 6, (2S)-3-(4-fluorophenyl)sulfonyl-N-[[5-fluoro-4-[2-(trifluoromethyl)pyrimidin-5-yl]-2-pyridyl]methyl]-3-azabicyclo[2.1.1]hexane-2-carboxamide], for which the IC50 stood at 16.8 nM.

As to `O=C(NCc1cc(-c2cnc(C(F)(F)F)nc2)c(Cl)cn1)[C@@H]1C2CC(C2)N1S(=O)(=O)c1ccc(F)cc1` [compound 7, (2S)-N-[[5-chloro-4-[2-(trifluoromethyl)pyrimidin-5-yl]-2-pyridyl]methyl]-3-(4-fluorophenyl)sulfonyl-3-azabicyclo[2.1.1]hexane-2-carboxamide], the IC50 was determined as 20.8 nM.

Consider `N#Cc1cnc(-c2cnc(C(F)(F)F)nc2)cc1CNC(=O)[C@@H]1C2CC(C2)N1S(=O)(=O)c1ccc(F)cc1` [compound 8, (2S)-N-[[5-cyano-2-[2-(trifluoromethyl)pyrimidin-5-yl]-4-pyridyl]methyl]-3-(4-fluorophenyl)sulfonyl-3-azabicyclo[2.1.1]hexane-2-carboxamide], for which the IC50 was 16 nM.

For `N#Cc1ccc(-c2cnc(C(F)(F)F)nc2)cc1CNC(=O)[C@@H]1C2CC(C2)N1S(=O)(=O)c1ccc(F)cc1` [compound 9, (2S)-N-[[2-cyano-5-[2-(trifluoromethyl)pyrimidin-5-yl]phenyl]methyl]-3-(4-fluorophenyl)sulfonyl-3-azabicyclo[2.1.1]hexane-2-carboxamide], the IC50 stood at 17.1 nM.

Consider `O=C(NCc1cc(-c2cnc(C(F)(F)F)nc2)nc(C2CC2)n1)[C@@H]1C2CC(C2)N1S(=O)(=O)c1ccc(F)cc1` [compound 10, (2S)-N-[[2-cyclopropyl-6-[2-(trifluoromethyl)pyrimidin-5-yl]pyrimidin-4-yl]methyl]-3-(4-fluorophenyl)sulfonyl-3-azabicyclo[2.1.1]hexane-2-carboxamide], for which the IC50 worked out at 2.15 nM.

For `CC12CC(C1)[C@@H](C(=O)NCc1cc(-c3cnc(C(F)(F)F)nc3)c(F)cn1)N2S(=O)(=O)c1ccc(F)cc1` [compound 12, (2S)-3-(4-fluorophenyl)sulfonyl-N-[[5-fluoro-4-[2-(trifluoromethyl)pyrimidin-5-yl]-2-pyridyl]methyl]-4-methyl-3-azabicyclo[2.1.1]hexane-2-carboxamide], the IC50 came out at 90.2 nM.

Turning to `O=C(NCc1cc(-c2cnc(C(F)(F)F)nc2)ncc1Cl)[C@@H]1C2CC(C2)N1S(=O)(=O)c1ccc(F)c(F)c1` [compound 13, (2S)-N-[[5-chloro-2-[2-(trifluoromethyl)pyrimidin-5-yl]-4-pyridyl]methyl]-3-(3,4-difluorophenyl)sulfonyl-3-azabicyclo[2.1.1]hexane-2-carboxamide], the IC50 amounted to 1.55 nM.
